The assay relates to HeLa SRC-3 KO vs WT growth ratio, MTT, 5 d. Kind of assay: growth ratio of SRC-3 knockout versus wild-type cells – cell-based, HeLa, zinc finger nuclease knockout, MTT, selectivity assay for SRC-1/SRC-3 inhibitor project, late-stage follow-up (AID 652069). The conditions noted are these: at 10 µM (top of the series).

Activity calls are given as the source filed them.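 How the source made its calls: active means growth ratio of SRC-3 knockout over parental cells of 1.2 or more, reached at 10 µM or lower; inactive means the rest.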

The text below walks through data of PubChem BioAssay AID652069 (The Scripps Research Institute Molecular Screening Center, 2013).

In the case of `O=C(Nc1nc2ccccc2s1)C1c2ccccc2Oc2ccccc21`, the KO/WT growth ratio, higher = selective was 1.05 (inactive).

As to `CC(C)N(c1ccccc1)c1ccc(NC(=O)CCl)cc1`, the KO/WT growth ratio, higher = selective was 1.07 (inactive).

As to `O=C(CCl)N1N=C(c2ccco2)CC1c1cccs1` (stereo unspecified), the KO/WT growth ratio, higher = selective was 2.05.

Consider `O=C(CCl)NC(Cc1ccccc1)c1ccccc1` (stereo unspecified), for which the KO/WT growth ratio, higher = selective was 1.07 (inactive).

Regarding `Cc1ccc(/C=C2\SC(=S)N(CCCC(=O)NC3CCCC3)C2=O)cc1`, the KO/WT growth ratio, higher = selective is 0.962 (inactive).

Consider `NC(=S)NN=C1CCSc2ccc(Cl)cc21`, for which the KO/WT growth ratio, higher = selective is 1.09 (inactive).

Turning to `O=[N+]([O-])c1cccc2c1ccc1ncccc12`, the KO/WT growth ratio, higher = selective is 1.09 (inactive).

Consider `O=C(Nc1nc(-c2ccccn2)cs1)c1cccc(S(=O)(=O)N2CCOCC2)c1`, for which the KO/WT growth ratio, higher = selective is 1.23.

For `CCOC(=O)C(=CNc1ccc(NC2=NCC(C)S2)cc1)C(=O)OCC` (stereo unspecified), the KO/WT growth ratio, higher = selective is 1 (inactive).

On to `O=[N+]([O-])c1nn(-c2ccc3c(c2)OCCO3)n(O)c1=Nc1ccc(Cl)cc1`, for which the KO/WT growth ratio, higher = selective is 0.995 (inactive).

Regarding `COC(=O)c1c(C)n(-c2ccc(OC)cc2)c2ccc(O)cc12`, the KO/WT growth ratio, higher = selective was 1.01 (inactive).

For the compound `S=C(Nc1ccccc1)Nc1ccc(OCc2ccc(Cl)cc2Cl)cc1`, the KO/WT growth ratio, higher = selective was 1.05 (inactive).

Take `Cc1ccc(OCC(=O)c2cc(C)n(Cc3cccs3)c2C)c([N+](=O)[O-])n1`: the KO/WT growth ratio, higher = selective was 0.969 (inactive).

For `Cc1nn(CC(=O)N2CCN(c3cccc(C(F)(F)F)c3)CC2)c(=O)c2cccn12`, the KO/WT growth ratio, higher = selective is 1.09 (inactive).

For `O=C(O)CN1C(=O)/C(=C\c2ccccc2OCc2ccc(Cl)cc2Cl)SC1=S`, the KO/WT growth ratio, higher = selective is 1.02 (inactive).

Turning to `CCc1ccc(N=c2c([N+](=O)[O-])nn(-c3ccc4c(c3)OCCO4)n2O)cc1`, the KO/WT growth ratio, higher = selective is 0.982 (inactive).

Turning to `Cc1ccc(/C=C2/SC(=S)N(CCCC(=O)Nc3ccc(O)cc3)C2=O)cc1`, the KO/WT growth ratio, higher = selective was 1.11 (inactive).

On to `Cc1c(Cl)cccc1N=c1c([N+](=O)[O-])nn(-c2ccc3c(c2)OCCO3)n1O`, for which the KO/WT growth ratio, higher = selective was 1.03 (inactive).

Regarding `Cc1ccc(OCC(=O)c2cc(C)n(-c3ccccc3)c2C)c([N+](=O)[O-])n1`, the KO/WT growth ratio, higher = selective was 0.934 (inactive).

As for `NS(=O)(=O)c1ccc(Nc2nc(-c3cccnc3)cs2)cc1`, the KO/WT growth ratio, higher = selective was 0.928 (inactive).

Consider `O=C(COC(=O)c1ccc[nH]c1=O)Nc1ccc(N2CCCCC2)cc1`, for which the KO/WT growth ratio, higher = selective was 0.954 (inactive).

As for `O=[N+]([O-])c1nn(-c2ccc3c(c2)OCCO3)n(O)c1=Nc1ccccc1`, the KO/WT growth ratio, higher = selective was 0.918 (inactive).

Regarding `CCCCC(=O)Nc1cccn2ncnc12`, the KO/WT growth ratio, higher = selective was 0.954 (inactive).

Regarding `Cc1ccc(N=c2c([N+](=O)[O-])nn(-c3ccc4c(c3)OCCO4)n2O)cc1F`, the KO/WT growth ratio, higher = selective is 1.02 (inactive).

`Cc1cc(C)cc(N=c2c([N+](=O)[O-])nn(-c3ccc4c(c3)OCCO4)n2O)c1`: the KO/WT growth ratio, higher = selective is 0.985 (inactive).

With `O=C1CCC2S/C(=C/Nc3ccc(C(F)(F)F)cc3)C(=O)N12` (stereo unspecified), the KO/WT growth ratio, higher = selective is 1.02 (inactive).

For the compound `Cc1c(/C(O)=C2/C(=O)C(=O)N(Cc3cccnc3)C2c2ccccn2)cnn1-c1ccccc1` (stereo unspecified), the KO/WT growth ratio, higher = selective was 0.966 (inactive).

With `NC(=O)c1sc2nc3c(c(-c4ccco4)c2c1N)CCC3`, the KO/WT growth ratio, higher = selective was 1.23.

As to `CC(=O)/C(N=Nc1ccc2c(c1)OCCO2)=C(/C)O`, the KO/WT growth ratio, higher = selective was 1.02 (inactive).

Consider `Cc1ccc(N=c2c([N+](=O)[O-])nn(-c3ccc4c(c3)OCCO4)n2O)c(Cl)c1`, for which the KO/WT growth ratio, higher = selective was 1.06 (inactive).

Take `CC(=O)N1CCN(c2ncnc3ccccc23)CC1`: the KO/WT growth ratio, higher = selective is 0.988 (inactive).

For the compound `CCOc1ccc(/C=C2\SC(=S)N(CCCC(=O)NCCCN3CCOCC3)C2=O)cc1`, the KO/WT growth ratio, higher = selective was 1.03 (inactive).

Turning to `COc1cc2c(cc1OC)C(NC(=O)C(F)(F)F)CNC2=O` (stereo unspecified), the KO/WT growth ratio, higher = selective is 1.47.

In the case of `COc1cc(C2c3cc4c(cc3C(OC3OC5COC(c6cccs6)OC5C(O)C3O)C3COC(=O)C23)OCO4)cc(OC)c1O` (stereo unspecified), the KO/WT growth ratio, higher = selective is 1.2.

`O=C(Nc1cccnc1)c1ccc(C(=O)Nc2cccnc2)cc1`: the KO/WT growth ratio, higher = selective was 1.07 (inactive).

Regarding `CCC(=O)N1CCN(c2ccnc3cc(Cl)ccc23)CC1`, the KO/WT growth ratio, higher = selective is 1.11 (inactive).

As for `COc1ccc(/C=C2/SC(=S)N(CCC(=O)O)C2=O)cc1`, the KO/WT growth ratio, higher = selective was 1.07 (inactive).

Take `c1ccc(-c2nnc(-c3ccccn3)nc2NC2CCCCC2)cc1`: the KO/WT growth ratio, higher = selective was 1.01 (inactive).

With `Cc1cccc(NC(=O)c2cc(Cl)ccc2[N+](=O)[O-])c1`, the KO/WT growth ratio, higher = selective was 1.09 (inactive).

As for `Cc1cc(N=c2c([N+](=O)[O-])nn(-c3ccc4c(c3)OCCO4)n2O)ccc1Br`, the KO/WT growth ratio, higher = selective is 0.974 (inactive).

With `CN(C)c1ccc(CNC(=O)CCNS(=O)(=O)c2cc(Br)cnc2N)cc1`, the KO/WT growth ratio, higher = selective is 1.04 (inactive).

With `O=C(NC(NC(=S)N1CCOCC1)C(Cl)(Cl)Cl)c1ccc(Cl)cc1` (stereo unspecified), the KO/WT growth ratio, higher = selective was 1.05 (inactive).

Take `S=C(c1ccc(-c2ccccc2)cc1)N1CCOCC1`: the KO/WT growth ratio, higher = selective was 0.918 (inactive).

For `Cc1c(CC(=O)NCCCC(=O)O)c(=O)oc2cc3c(cc12)CCC(C)(C)O3`, the KO/WT growth ratio, higher = selective is 1.04 (inactive).

As for `CCc1ccc(/C=C2\SC(=S)N(CCCC(=O)NCCCN3CCOCC3)C2=O)cc1`, the KO/WT growth ratio, higher = selective was 0.974 (inactive).

In the case of `COc1cc(N=c2c([N+](=O)[O-])nn(-c3ccc4c(c3)OCCO4)n2O)cc(OC)c1`, the KO/WT growth ratio, higher = selective is 1.09 (inactive).

In the case of `Cc1cc(/C=C2\Cc3ccccc3C2=O)c(C)n1-c1ccccc1`, the KO/WT growth ratio, higher = selective was 1.01 (inactive).

For `CC(C)n1c(SCC(=O)Nc2nc3c(s2)CCCC3)nc2c1c(=O)n(C)c(=O)n2C`, the KO/WT growth ratio, higher = selective was 1.03 (inactive).

With `O=C(CCl)N1N=C(c2ccco2)CC1c1ccco1` (stereo unspecified), the KO/WT growth ratio, higher = selective was 1.42.

Turning to `Cn1nc(C(F)(F)F)c(C#N)c1N1CCN(c2ccc(F)cc2)CC1`, the KO/WT growth ratio, higher = selective was 0.976 (inactive).

In the case of `O=C(CCCc1nc(-c2ccccc2Cl)no1)NC1CCCC1`, the KO/WT growth ratio, higher = selective was 1.06 (inactive).
